In publication PMC11649115, “In vitro safety evaluation of dopamine D3R antagonist, R-VK4-116, as a potential medication for the treatment of opioid use disorder” (PLOS ONE, 2024):

Legend:
[1] = system: CYP1A2, CYP2B6, CYP2C8, CYP2C9, CYP2C19; assay: CYP phenotyping, other recombinant CYP isoforms; type: in vitro ADME; details: 1 μM, up to 120 min
Procedure: CYP phenotyping involved the identification of CYP isoforms, which involved in the metabolism of R-VK4-116 using recombinant CYP1A2, CYP2B6, CYP2C8, CYP2C9, CYP2C19, CYP2D6, and CYP3A4 (XenoTech, LLC, Kansas City, KS), followed by determination of the Km and Vmax for the metabolites formed by the major CYP isoforms. […] In addition, R-VK4-116 was also incubated with all components in the absence of NADPH. […] Following brief vortexing and centrifugation, 50 μl of supernatant was mixed with 450 μl of 25:75:0.2 acetonitrile/water/formic acid for analysis by LC-MS/MS to determine the remaining R-VK4-116 at each time point based on peak area ratio (PAR) of R-VK4-116 to IS. As a positive control, the known substrate of each individual CYP isoform (phenacetin for CYP1A2, bupropion for CYP2B6, paclitaxel for CYP2C8, diclofenac for CYP2C9, diazepam for CYP2C19, bufuralol for CYP2D6, and testosterone for CYP3A4) was also incubated.

OCT2 = biological target: T1, OCT2 (Homo sapiens, UniProt O15244); assay: Transporter mediated assay (substrate/inhibitor), MDCK-II cells; type: in vitro ADME
T1 construct: expressed in transfected cells; host or cells: MDCK-II cells
T1 sequence (O15244 1-555): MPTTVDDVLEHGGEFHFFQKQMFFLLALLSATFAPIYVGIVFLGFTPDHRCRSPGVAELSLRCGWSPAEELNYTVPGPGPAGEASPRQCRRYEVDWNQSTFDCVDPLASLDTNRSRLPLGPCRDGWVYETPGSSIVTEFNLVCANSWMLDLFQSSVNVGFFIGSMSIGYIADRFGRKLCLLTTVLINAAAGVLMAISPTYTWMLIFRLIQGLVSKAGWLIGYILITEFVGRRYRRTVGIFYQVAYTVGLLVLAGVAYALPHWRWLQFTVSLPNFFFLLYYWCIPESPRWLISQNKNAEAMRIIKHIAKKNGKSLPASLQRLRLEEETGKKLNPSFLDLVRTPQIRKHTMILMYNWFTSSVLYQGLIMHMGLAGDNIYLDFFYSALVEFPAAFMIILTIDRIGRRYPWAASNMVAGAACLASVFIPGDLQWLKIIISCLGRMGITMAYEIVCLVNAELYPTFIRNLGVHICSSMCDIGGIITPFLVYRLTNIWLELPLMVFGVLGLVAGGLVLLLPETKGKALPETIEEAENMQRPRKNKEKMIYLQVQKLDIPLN
Procedure: (§1) The MDCK-II cells were treated to express the transporter of interest. The transport of each probe substrate was determined by radiometric detection (Fig 1 in S1 File). […] For the uptake assay, the net transporter-mediated uptake-rate (V) of the substrate by each SLC transporter was calculated as follows: Transporter–mediatedupdaterate(pmol/min/cm^2)=(Cellularaccumulationincellsexpressingthetransporter)−(Meancellularaccumulationincontrolcells)/Surfacearea×incubationtime
(§2) Fold of activity and percent inhibition were determined as follows: Foldofactivity=(Meanuptakerate)transporterexpressingcells/(Meanuptakerate)controlcells Percentinhibition=100−100×(Transport‐mediatedupdaterate)withinhibitor/(Transport‐mediatedupdaterate)vehiclecontrol

OATP1B1 = biological target: T2, OATP1B1 (Homo sapiens, UniProt Q9Y6L6); assay: as above; type: in vitro ADME
T2 construct: expressed in transfected cells; host or cells: MDCK-II cells
T2 sequence (Q9Y6L6 1-691): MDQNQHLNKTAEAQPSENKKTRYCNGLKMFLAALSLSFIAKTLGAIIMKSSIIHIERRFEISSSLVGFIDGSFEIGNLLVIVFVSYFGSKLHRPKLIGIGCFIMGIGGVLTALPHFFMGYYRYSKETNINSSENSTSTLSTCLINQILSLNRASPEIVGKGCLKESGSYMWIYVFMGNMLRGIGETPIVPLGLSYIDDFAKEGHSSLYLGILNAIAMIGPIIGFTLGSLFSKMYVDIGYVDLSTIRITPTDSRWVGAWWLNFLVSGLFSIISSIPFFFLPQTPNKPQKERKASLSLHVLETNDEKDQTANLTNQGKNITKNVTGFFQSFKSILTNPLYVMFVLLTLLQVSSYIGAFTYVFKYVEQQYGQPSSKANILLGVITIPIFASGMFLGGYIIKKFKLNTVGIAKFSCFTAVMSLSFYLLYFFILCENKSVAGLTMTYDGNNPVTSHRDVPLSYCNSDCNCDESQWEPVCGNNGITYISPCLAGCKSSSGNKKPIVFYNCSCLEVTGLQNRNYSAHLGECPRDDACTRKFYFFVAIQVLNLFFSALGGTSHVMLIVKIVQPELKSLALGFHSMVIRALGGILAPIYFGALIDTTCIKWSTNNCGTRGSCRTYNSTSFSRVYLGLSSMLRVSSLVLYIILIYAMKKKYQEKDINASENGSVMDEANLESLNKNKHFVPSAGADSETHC
Procedure: as §1, §2

MATE2-K = biological target: T3, MATE2-K (Homo sapiens, UniProt Q86VL8); assay: as above; type: in vitro ADME
T3 construct: expressed in transfected cells; host or cells: MDCK-II cells
T3 sequence (Q86VL8 1-566 isoform Q86VL8-3): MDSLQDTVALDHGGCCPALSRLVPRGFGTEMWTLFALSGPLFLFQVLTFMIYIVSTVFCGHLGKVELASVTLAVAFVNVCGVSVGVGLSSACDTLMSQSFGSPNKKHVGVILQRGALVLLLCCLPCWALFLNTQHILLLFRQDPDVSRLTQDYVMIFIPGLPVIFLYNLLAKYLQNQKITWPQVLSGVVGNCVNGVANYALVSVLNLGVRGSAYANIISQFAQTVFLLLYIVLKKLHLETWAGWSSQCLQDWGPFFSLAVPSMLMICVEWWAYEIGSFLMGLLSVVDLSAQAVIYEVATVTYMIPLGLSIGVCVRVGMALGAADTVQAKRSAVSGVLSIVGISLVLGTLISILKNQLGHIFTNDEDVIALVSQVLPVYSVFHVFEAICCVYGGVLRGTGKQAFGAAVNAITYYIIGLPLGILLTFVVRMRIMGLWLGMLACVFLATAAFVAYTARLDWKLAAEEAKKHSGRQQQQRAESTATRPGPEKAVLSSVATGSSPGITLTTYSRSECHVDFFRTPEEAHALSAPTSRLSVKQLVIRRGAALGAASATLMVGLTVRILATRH
Procedure: The MDCK-II cells were treated to express the transporter of interest. […] For the uptake assay, the net transporter-mediated uptake-rate (V) of the substrate by each SLC transporter was calculated as follows: Transporter–mediatedupdaterate(pmol/min/cm^2)=(Cellularaccumulationincellsexpressingthetransporter)−(Meancellularaccumulationincontrolcells)/Surfacearea×incubationtime
as §2

BCRP = biological target: T4, BCRP (Homo sapiens, UniProt Q9UNQ0); assay: as above; type: in vitro ADME
T4 construct: expressed in transfected cells; host or cells: MDCK-II cells
T4 sequence (Q9UNQ0 1-655): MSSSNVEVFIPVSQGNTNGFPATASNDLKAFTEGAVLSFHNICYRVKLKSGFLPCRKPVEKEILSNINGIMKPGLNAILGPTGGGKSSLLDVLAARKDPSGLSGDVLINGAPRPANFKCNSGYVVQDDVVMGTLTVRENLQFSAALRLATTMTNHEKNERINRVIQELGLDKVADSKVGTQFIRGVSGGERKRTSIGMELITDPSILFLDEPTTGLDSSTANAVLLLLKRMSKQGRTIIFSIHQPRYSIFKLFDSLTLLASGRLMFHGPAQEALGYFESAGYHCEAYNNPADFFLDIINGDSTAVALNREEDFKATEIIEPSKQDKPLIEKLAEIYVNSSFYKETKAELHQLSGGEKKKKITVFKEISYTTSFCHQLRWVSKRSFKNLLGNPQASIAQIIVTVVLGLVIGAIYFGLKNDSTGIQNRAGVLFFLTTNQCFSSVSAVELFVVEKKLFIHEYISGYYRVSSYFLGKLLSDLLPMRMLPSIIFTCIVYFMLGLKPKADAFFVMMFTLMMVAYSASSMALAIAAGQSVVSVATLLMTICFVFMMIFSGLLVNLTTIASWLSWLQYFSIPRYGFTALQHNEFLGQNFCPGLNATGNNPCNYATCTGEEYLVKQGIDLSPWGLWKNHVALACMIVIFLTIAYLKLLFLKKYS
Procedure: The MDCK-II cells were treated to express the transporter of interest.
For BCRP and P-gp, the apparent permeability Papp and Efflux Ratio (ER) were calculated [16]. Net basal (B) to apical (A) flux (B → A) of the substrate transport (pmol/min/cm^2) by BCRP or P-gp was calculated by subtracting A → B flux from B → A flux.

[2] = parameters: method as in PMID 31526003; details: rats, 10 mg/kg oral dose ref 8; cited from earlier work

CCc1cc(Cl)c(OC)c(N2CCN(CC(O)CCNC(=O)c3cc4ccccc4[nH]3)CC2)c1 (stereo not shown) [R-VK4-116, N-(4-(4-(3-chloro-5-ethyl-2-methoxyphenyl)piperazin-1-yl)-3-hydroxybutyl)-1H-indole-2-carboxamide]
metabolism by other CYP isoforms [1]: Minimal to no metabolism | fold difference in mean uptake rate (substrate test) (OCT2; OCT2, 1 μM, transporter cells vs control cells): < 2 fold | Inhibition (%) (OCT2; OCT2, 0.1% BSA, 10 μM): no statistically significant inhibition | inhibition at 10 µM (OCT2; human, polarized monolayer of MDCK-II cells expressing OCT2, OCT2, 0.1% BSA, 10 μM): -17.4 ± 1.88% | fold difference in mean uptake rate (substrate test) (OATP1B1; OATP1B1, 1 μM, transporter cells vs control cells): < 2 fold | Inhibition (%) (OATP1B1; OATP1B1, 0.1% BSA, 10 μM): no statistically significant inhibition | inhibition at 10 µM (OATP1B1; human, polarized monolayer of MDCK-II cells expressing OATP1B1, OATP1B1, 0.1% BSA, 10 μM): 5.5 ± 17.3% | fold difference in mean uptake rate (substrate test) (MATE2-K; 1 μM, transporter cells vs control cells): < 2 fold | inhibition at 10 µM (MATE2-K; human, polarized monolayer of MDCK-II cells expressing MATE2-K, 0.1% BSA, 10 μM): 37.8 ± 9.26% | Papp A→B at 1 µM (BCRP; BCRP, substrate test, 1 µM): < 0.2 ×10⁻⁶ cm/s | Papp B→A at 1 µM (BCRP; BCRP, substrate test, 1 µM): < 0.1 ×10⁻⁶ cm/s | inhibition at 10 µM (BCRP; probe prazosin 2 μM): 54 ± 1.46% | Cmax [2]: 454 nM
